In patent US6358885B1, “Substituted phenylheterocyclic herbicides” (Mississippi State University, priority 1992, dated 2002):

Experiments:
[1] = tested on: barnyardgrass; assay: Test B preemergence/postemergence greenhouse plant response rating 0 to 10; assay type: in vivo, Echinochloa crus-galli; settings: for Plant response rating, Barnyardgrass: 0 to 10 scale
Procedure, shortened: (§1)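 Test chemicals, dissolved in a non-phytotoxic solvent, were applied to soil at planting and, at the same time, over foliage of seedlings at the one to four leaf stage.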

[2] = tested on: cocklebur; assay: as above; assay type: in vivo, Xanthium pensylvanicum; settings: for Plant response rating, Cocklebur: 0 to 10 scale
Procedure, shortened: as §1

[3] = tested on: cotton; assay: as above; assay type: in vivo, Gossypium hirsutum; settings: for Plant response rating, Cotton: 0 to 10 scale
Procedure, shortened: as §1

[4] = tested on: morningglory; assay: as above; assay type: in vivo, Ipomoea hederacea; settings: for Plant response rating, Morningglory: 0 to 10 scale
Procedure, shortened: as §1

[5] = tested on: rice; assay: as above; assay type: in vivo, Oryza sativa; settings: for Plant response rating, Rice: 0 to 10 scale
Procedure, shortened: as §1

[6] = tested on: sorghum; assay: as above; assay type: in vivo, Sorghum bicolor; settings: for Plant response rating, Sorghum: 0 to 10 scale
Procedure, shortened: as §1

[7] = tested on: wheat; assay: as above; assay type: in vivo, Triticum aestivum; settings: for Plant response rating, Wheat: 0 to 10 scale
Procedure, shortened: as §1

[8] = tested on: wild oat; assay: as above; assay type: in vivo, Avena fatua; settings: for Plant response rating, Wild oat: 0 to 10 scale
Procedure, shortened: as §1

[9] = tested on: blackgrass; assay: Test C preemergence/postemergence greenhouse plant response rating 0 to 100; assay type: in vivo, Alopecurus myosuroides; settings: for Plant response rating, Blackgrass: 0 to 100 scale
Procedure, shortened: (§2)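 Compounds in non-phytotoxic solvent applied preemergence to sandy loam one day after planting, postemergence at the 1–4 leaf stage, or to ~2.5 cm floodwater over silt loam.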

[10] = tested on: crabgrass; assay: as above; assay type: in vivo, Digitaria sanguinalis; settings: for Plant response rating, Crabgrass: 0 to 100 scale
Procedure, shortened: as §2

[11] = tested on: rape; assay: as above; assay type: in vivo, Brassica napus; settings: for Plant response rating, Rape: 0 to 100 scale
Procedure, shortened: as §2

[12] = tested on: rice; assay: Test C flood test plant response rating 0 to 100; assay type: in vivo, Oryza sativa; settings: for Plant response rating Rice Japonica: flood test species listed under POSTEMERGENCE, 0 to 100 scale
Procedure, shortened: as §2

[13] = tested on: umbrella sedge; assay: Test C flood test plant response rating 0 to 100; assay type: in vivo, Cyperus difformis; settings: for Plant response rating Umbrella sedge: flood test species listed under POSTEMERGENCE, 0 to 100 scale
Procedure, shortened: as §2

[14] = POSTEMERGENCE section, flood test, Rate 4 g/ha
[15] = Rate 16 g/ha, under POSTEMERGENCE head (flood test species)
[16] = POSTEMERGENCE section, flood test, Rate 1 g/ha

## C#CC(C)Oc1cc(-c2nn3c(c2Br)CCCC3)c(F)cc1Cl (stereo not drawn) [Compound 66]
[1]; POSTEMERGENCE, Rate 50 g/ha
  Plant response rating, Barnyardgrass: 5
[1]; PREEMERGENCE, Rate 50 g/ha
  Plant response rating, Barnyardgrass: 0
[1]; PREEMERGENCE, Rate 200 g/ha
  Plant response rating (0 to 10 scale), Barnyardgrass: 7
[1]; Rate 200 g/ha, POSTEMERGENCE
  Plant response rating, Barnyardgrass: 9
[2]; POSTEMERGENCE, Rate 50 g/ha
  Plant response rating, Cocklebur: 9
[2]; PREEMERGENCE, Rate 50 g/ha
  Plant response rating, Cocklebur: 0
[2]; PREEMERGENCE, Rate 200 g/ha
  Plant response rating (0 to 10 scale), Cocklebur: 0
[2]; Rate 200 g/ha, POSTEMERGENCE
  Plant response rating, Cocklebur: 10
[3]; POSTEMERGENCE, Rate 50 g/ha
  Plant response rating, Cotton: 10
[3]; PREEMERGENCE, Rate 50 g/ha
  Plant response rating, Cotton: 0
[3]; PREEMERGENCE, Rate 200 g/ha
  Plant response rating (0 to 10 scale), Cotton: 0
[3]; Rate 200 g/ha, POSTEMERGENCE
  Plant response rating, Cotton: 10
[4]; POSTEMERGENCE, Rate 50 g/ha
  Plant response rating, Morningglory: 10
[4]; PREEMERGENCE, Rate 50 g/ha
  Plant response rating, Morningglory: 0
[4]; PREEMERGENCE, Rate 200 g/ha
  Plant response rating (0 to 10 scale), Morningglory: 2
[4]; Rate 200 g/ha, POSTEMERGENCE
  Plant response rating, Morningglory: 10
[5]; POSTEMERGENCE, Rate 50 g/ha
  Plant response rating, Rice: 5
[5]; PREEMERGENCE, Rate 50 g/ha
  Plant response rating, Rice: 0
[5]; PREEMERGENCE, Rate 200 g/ha
  Plant response rating (0 to 10 scale), Rice: 0
[5]; Rate 200 g/ha, POSTEMERGENCE
  Plant response rating, Rice: 6
[6]; POSTEMERGENCE, Rate 50 g/ha
  Plant response rating, Sorghum: 5
[6]; PREEMERGENCE, Rate 50 g/ha
  Plant response rating, Sorghum: 0
[6]; PREEMERGENCE, Rate 200 g/ha
  Plant response rating (0 to 10 scale), Sorghum: 0
[6]; Rate 200 g/ha, POSTEMERGENCE
  Plant response rating, Sorghum: 7
[7]; POSTEMERGENCE, Rate 50 g/ha
  Plant response rating, Wheat: 5
[7]; PREEMERGENCE, Rate 50 g/ha
  Plant response rating, Wheat: 0
[7]; PREEMERGENCE, Rate 200 g/ha
  Plant response rating (0 to 10 scale), Wheat: 3
[7]; Rate 200 g/ha, POSTEMERGENCE
  Plant response rating, Wheat: 5
[8]; POSTEMERGENCE, Rate 50 g/ha
  Plant response rating, Wild oat: 5
[8]; PREEMERGENCE, Rate 50 g/ha
  Plant response rating, Wild oat: 2
[8]; PREEMERGENCE, Rate 200 g/ha
  Plant response rating (0 to 10 scale), Wild oat: 5
[8]; Rate 200 g/ha, POSTEMERGENCE
  Plant response rating, Wild oat: 6
[9]; POSTEMERGENCE, 62 g/ha
  Plant response rating, Blackgrass: 60
[9]; POSTEMERGENCE, 250 g/ha
  Plant response rating, Blackgrass: 80
[9]; POSTEMERGENCE, Rate 4 g/ha
  Plant response rating (0 to 100), Blackgrass: 20
[9]; PREEMERGENCE, 62 g/ha
  Plant response rating, Blackgrass: 70
[9]; PREEMERGENCE, 250 g/ha
  Plant response rating, Blackgrass: 70
[9]; PREEMERGENCE, Rate 4 g/ha
  Plant response rating (0 to 100), Blackgrass: 0
[9]; Rate 16 g/ha, POSTEMERGENCE
  Plant response rating (0 to 100), Blackgrass: 40
[9]; Rate 16 g/ha, PREEMERGENCE
  Plant response rating (0 to 100), Blackgrass: 20
[10]; POSTEMERGENCE, 62 g/ha
  Plant response rating, Crabgrass: 40
[10]; POSTEMERGENCE, 250 g/ha
  Plant response rating, Crabgrass: 50
[10]; POSTEMERGENCE, Rate 4 g/ha
  Plant response rating (0 to 100), Crabgrass: 10
[10]; PREEMERGENCE, 62 g/ha
  Plant response rating, Crabgrass: 50
[10]; PREEMERGENCE, 250 g/ha
  Plant response rating, Crabgrass: 100
[10]; PREEMERGENCE, Rate 4 g/ha
  Plant response rating (0 to 100), Crabgrass: 0
[10]; Rate 16 g/ha, POSTEMERGENCE
  Plant response rating (0 to 100), Crabgrass: 20
[10]; Rate 16 g/ha, PREEMERGENCE
  Plant response rating (0 to 100), Crabgrass: 0
[11]; POSTEMERGENCE, 62 g/ha
  Plant response rating, Rape: 100
[11]; POSTEMERGENCE, 250 g/ha
  Plant response rating, Rape: 100
[11]; POSTEMERGENCE, Rate 4 g/ha
  Plant response rating (0 to 100), Rape: 40
[11]; PREEMERGENCE, 62 g/ha
  Plant response rating, Rape: 20
[11]; PREEMERGENCE, 250 g/ha
  Plant response rating, Rape: 30
[11]; PREEMERGENCE, Rate 4 g/ha
  Plant response rating (0 to 100), Rape: 0
[11]; Rate 16 g/ha, POSTEMERGENCE
  Plant response rating (0 to 100), Rape: 60
[11]; Rate 16 g/ha, PREEMERGENCE
  Plant response rating (0 to 100), Rape: 0
[12]; [14]
  Plant response rating (0 to 100), Rice Japonica: 0
[12]; [15]
  Plant response rating (0 to 100), Rice Japonica: 0
[12]; 62 g/ha
  Plant response rating Rice Japonica: 10
[12]; 250 g/ha
  Plant response rating Rice Japonica: 25
[13]; [14]
  Plant response rating (0 to 100), Umbrella sedge: 0
[13]; [15]
  Plant response rating (0 to 100), Umbrella sedge: 0
[13]; 62 g/ha
  Plant response rating Umbrella sedge: 0
[13]; 250 g/ha
  Plant response rating Umbrella sedge: 80

## COCN1C(=O)COc2cc(F)c(-c3nn4c(c3Br)CCCC4)cc21 [Compound 67]
[1]; POSTEMERGENCE, Rate 10 g/ha
  Plant response rating, Barnyardgrass: 5
[1]; POSTEMERGENCE, Rate 50 g/ha
  Plant response rating, Barnyardgrass: 6
[1]; PREEMERGENCE, Rate 10 g/ha
  Plant response rating, Barnyardgrass: 2
[1]; PREEMERGENCE, Rate 50 g/ha
  Plant response rating, Barnyardgrass: 6
[2]; POSTEMERGENCE, Rate 10 g/ha
  Plant response rating, Cocklebur: 8
[2]; POSTEMERGENCE, Rate 50 g/ha
  Plant response rating, Cocklebur: 9
[2]; PREEMERGENCE, Rate 10 g/ha
  Plant response rating, Cocklebur: 0
[2]; PREEMERGENCE, Rate 50 g/ha
  Plant response rating, Cocklebur: 0
[3]; POSTEMERGENCE, Rate 10 g/ha
  Plant response rating, Cotton: 10
[3]; POSTEMERGENCE, Rate 50 g/ha
  Plant response rating, Cotton: 10
[3]; PREEMERGENCE, Rate 10 g/ha
  Plant response rating, Cotton: 0
[3]; PREEMERGENCE, Rate 50 g/ha
  Plant response rating, Cotton: 1
[4]; POSTEMERGENCE, Rate 10 g/ha
  Plant response rating, Morningglory: 10
[4]; POSTEMERGENCE, Rate 50 g/ha
  Plant response rating, Morningglory: 10
[4]; PREEMERGENCE, Rate 50 g/ha
  Plant response rating, Morningglory: 2
[5]; POSTEMERGENCE, Rate 10 g/ha
  Plant response rating, Rice: 6
[5]; POSTEMERGENCE, Rate 50 g/ha
  Plant response rating, Rice: 7
[5]; PREEMERGENCE, Rate 50 g/ha
  Plant response rating, Rice: 0
[6]; POSTEMERGENCE, Rate 10 g/ha
  Plant response rating, Sorghum: 5
[6]; POSTEMERGENCE, Rate 50 g/ha
  Plant response rating, Sorghum: 6
[6]; PREEMERGENCE, Rate 50 g/ha
  Plant response rating, Sorghum: 2
[7]; POSTEMERGENCE, Rate 10 g/ha
  Plant response rating, Wheat: 5
[7]; POSTEMERGENCE, Rate 50 g/ha
  Plant response rating, Wheat: 6
[7]; PREEMERGENCE, Rate 50 g/ha
  Plant response rating, Wheat: 0
[8]; POSTEMERGENCE, Rate 10 g/ha
  Plant response rating, Wild oat: 6
[8]; POSTEMERGENCE, Rate 50 g/ha
  Plant response rating, Wild oat: 7
[8]; PREEMERGENCE, Rate 50 g/ha
  Plant response rating, Wild oat: 5
[9]; POSTEMERGENCE, 62 g/ha
  Plant response rating, Blackgrass: 60
[9]; POSTEMERGENCE, Rate 1 g/ha
  Plant response rating (0 to 100), Blackgrass: 30
[9]; POSTEMERGENCE, Rate 4 g/ha
  Plant response rating (0 to 100), Blackgrass: 40
[9]; Rate 16 g/ha, POSTEMERGENCE
  Plant response rating (0 to 100), Blackgrass: 50
[10]; POSTEMERGENCE, 62 g/ha
  Plant response rating, Crabgrass: 40
[10]; POSTEMERGENCE, Rate 1 g/ha
  Plant response rating (0 to 100), Crabgrass: 10
[10]; POSTEMERGENCE, Rate 4 g/ha
  Plant response rating (0 to 100), Crabgrass: 20
[10]; Rate 16 g/ha, POSTEMERGENCE
  Plant response rating (0 to 100), Crabgrass: 30
[11]; POSTEMERGENCE, 62 g/ha
  Plant response rating, Rape: 100
[11]; POSTEMERGENCE, Rate 1 g/ha
  Plant response rating (0 to 100), Rape: 70
[11]; POSTEMERGENCE, Rate 4 g/ha
  Plant response rating (0 to 100), Rape: 70
[11]; Rate 16 g/ha, POSTEMERGENCE
  Plant response rating (0 to 100), Rape: 90
[12]; [16]
  Plant response rating (0 to 100), Rice Japonica: 0
[12]; [14]
  Plant response rating (0 to 100), Rice Japonica: 0
[12]; [15]
  Plant response rating (0 to 100), Rice Japonica: 50
[12]; 62 g/ha
  Plant response rating Rice Japonica: 90
[13]; [16]
  Plant response rating (0 to 100), Umbrella sedge: 0
[13]; [14]
  Plant response rating (0 to 100), Umbrella sedge: 0
[13]; [15]
  Plant response rating (0 to 100), Umbrella sedge: 30
[13]; 62 g/ha
  Plant response rating Umbrella sedge: 70
